Test results from patent US9643950B2, “Solid forms of {s-3-(4-amino-1-oxo-isoindolin-2-yl)(piperidine-3,4,4,5,5-d5)-2,6-dione}” (Concert Pharmaceuticals, Inc., priority 2012, dated 2017).
Converted amounts (≈) assume the structure as drawn. “Also recorded” adds a separate entry of the source. Where two headings read alike, the source gives them in different places.

Columns and labels:
Assay type in all cases: physicochemical
[1] = Visually estimated solubility of Form 1 in an array of solvents
Method: Solubility of Form 1 was visually estimated in an array of different solvents. […] Where applicable, the undissolved solids were analyzed by PXRD to verify crystal form. The data are shown in and indicate that the solubility of Form 1 to be relatively low in water and common organic solvents, (<6 mg/mL), very high in dimethylsulfoxide (DMSO; >400 mg/mL), and moderate in water- or DMSO-containing binary solvent systems.
Solubility of Form 1 was visually estimated in an array of diverse solvents. […] Where applicable, the undissolved solids were analyzed by PXRD to verify crystal form. The data are shown in Table 2 and indicate that the solubility of Form 1 is relatively low in water and common organic solvents, (<6 mg/mL), very high in dimethylsulfoxide (DMSO; >400 mg/mL), and moderate in water- or DMSO-containing binary solvent systems.

[2] = Relative stability of Forms 1 and 3 in water/organic mixtures (seeded suspensions)
Method: A series of experiments were conducted to assess the relative stability of Forms 1 and 3. […] The suspensions were each seeded with a small amount of Form 3 (˜1 mg) and stirred until a complete form conversion occurred.

[3] = Dynamic vapor sorption (DVS) hygroscopicity
Method: DVS experiments were conducted on a Surface Measurement Systems DVS-HT at 25° C. The instrument was operated in step mode and the relative humidity was increased in 10% RH increments from 40% RH to 90% RH, then decreased from 90% RH to 0% RH, then increased from 0% RH to 90% RH, then decreased from 90% RH to 0% RH. An extra step at 75% RH was included in each cycle. The mass equilibrium criterion was set at 0.005% change in mass over time (dm/dt) prior to each humidity level. A minimum step time of 10 minutes and a maximum step time of 240 minutes were specified.

[4] = Physical (solid form) stability on storage or stirring, by PXRD; conditions: for Physical stability by PXRD: 40° C./75% RH for 6 days
Method: PXRD diffractograms were acquired using PANalytical X'Pert Pro diffractometer on Si zero-background wafers. All diffractograms were collected using a monochromatic Cu Kα (45 kV/40 mA) radiation and a step size of 0.02° 2θ.
Form 1 is a crystalline powder with a PXRD pattern indicated at FIG. 1. FT-Raman (FIG. 2) and FT-IR Spectra (FIG. 3) were also collected. […] HPLC analysis indicated high purity of the material (>99.9% AUC). […] (FIG. 4). The PXRD diffractogram of the material heated past the exothermic event (heating to 261° C. followed by isothermal hold for 7 min) indicates a racemization of D-(S)-lenalidomide, as confirmed by chiral HPLC analyses of a reference material. […] This conclusion is based on two simultaneously run experiments. In one experiment, […] was exposed to 40° C./75% RH. […] Moreover, even this formation of Form 3 may have been at least in part the result of condensation inside of the RH chamber towards the end of the experiment, as a result of which Form 1 became slightly wet.
PXRD (FIG. 6) and PLM microscopy analyses indicate Form 2 to be partially crystalline and phase-impure with amorphous content. Thermal analyses confirmed that the material loses 4.3% wt. upon heating up to 160° C. (FIG. 8). IR analysis of the volatile component released upon heating confirmed water. The loss of water corresponds to broad endothermic (50-100° C.) and exothermic (120-160° C.) events on the DSC trace (FIG. 8), indicating potential dehydration and crystallization, respectively. An FT-Raman spectrum is provided at FIG. 7.

[5] = HPLC analysis of degradation; conditions: material from rapid evaporation of methanol solution (rotovapped at 65° C.)
Method: HPLC analyses were conducted with an HP1100 system equipped with a G1131 Quad pump, G1367A autosampler, and G1315B diode array detector. Column: Luna C18(2) (50×2.0 mm, 3 μm). Mobile phase: 100% vol. water (0.05% vol. TFA) to 95% acetonitrile (0.05% vol. TFA) over 8 min and 2 min re-equilibration. Flow rate: 1 mL/min. Detection: 254 nm.

## [2H]C1([2H])C(=O)NC(=O)[C@@]([2H])(N2Cc3c(N)cccc3C2=O)C1([2H])[2H] (single isomer, unassigned) [Form 1, 3-(4-amino-1-oxoisoindolin-2-yl)(piperidine-3,4,4,5,5-d5)-2,6-dione]
[1]; 1,4-Dioxane
  Residual Solid (crystal form of undissolved solids by PXRD): Form 1
[1]; 1,4-dioxane, 40 °C, organic solvent or mixture, thermodynamic from solid, read-out: Solubility at 40° C.
  solubility: > 6 mg/mL
[1]; 2-Propanol
  Residual Solid (crystal form of undissolved solids by PXRD): Form 1
[1]; 2-propanol, 40 °C, organic solvent or mixture, thermodynamic from solid, read-out: Solubility at 40° C.
  solubility: < 1 mg/mL
[1]; DMSO, 20° C.
  Solubility at RT: >400 mg/mL
[1]; Dichloromethane
  Residual Solid (crystal form of undissolved solids by PXRD): Form 1
[1]; Ethyl Acetate
  Residual Solid (crystal form of undissolved solids by PXRD): Form 1
[1]; Heptane
  Residual Solid (crystal form of undissolved solids by PXRD): Form 1
[1]; Toluene
  Residual Solid (crystal form of undissolved solids by PXRD): Form 1
[1]; dichloromethane, 40 °C, organic solvent or mixture, thermodynamic from solid, read-out: Solubility at 40° C.
  solubility: < 1 mg/mL
[1]; ethyl acetate, 40 °C, organic solvent or mixture, thermodynamic from solid, read-out: Solubility at 40° C.
  solubility: < 1 mg/mL
[1]; heptane, 40 °C, organic solvent or mixture, thermodynamic from solid, read-out: Solubility at 40° C.
  solubility: < 1 mg/mL
[1]; organic solvent or mixture, thermodynamic from solid, 1,4-Dioxane, 20° C., read-out: Solubility at RT
  solubility: < 1 mg/mL
[1]; organic solvent or mixture, thermodynamic from solid, 2-Propanol: 10% vol. DMSO, 20° C., read-out: Solubility at RT
  solubility: 1 to 10 mg/mL (≈ 3.78 to 37.8 mM)
[1]; organic solvent or mixture, thermodynamic from solid, 2-Propanol, 20° C., read-out: Solubility at RT
  solubility: < 1 mg/mL
[1]; organic solvent or mixture, thermodynamic from solid, Acetone, 20° C., read-out: Solubility at RT
  solubility: 1 to 6 mg/mL (≈ 3.78 to 22.7 mM)
[1]; organic solvent or mixture, thermodynamic from solid, Acetonitrile: 10% vol. DMSO, 20° C., read-out: Solubility at RT
  solubility: 10 to 30 mg/mL (≈ 37.8 to 114 mM)
[1]; organic solvent or mixture, thermodynamic from solid, Acetonitrile: 10% vol. Water, 20° C., read-out: Solubility at RT
  solubility: 14 to 17 mg/mL (≈ 53 to 64.3 mM)
[1]; organic solvent or mixture, thermodynamic from solid, Acetonitrile, 20° C., read-out: Solubility at RT
  solubility: 1 to 6 mg/mL (≈ 3.78 to 22.7 mM)
[1]; organic solvent or mixture, thermodynamic from solid, DMSO, 20° C., read-out: Solubility at RT
  solubility: > 400 mg/mL
[1]; organic solvent or mixture, thermodynamic from solid, Dichloromethane, 20° C., read-out: Solubility at RT
  solubility: < 1 mg/mL
[1]; organic solvent or mixture, thermodynamic from solid, Ethyl Acetate, 20° C., read-out: Solubility at RT
  solubility: < 1 mg/mL
[1]; organic solvent or mixture, thermodynamic from solid, Heptane, 20° C., read-out: Solubility at RT
  solubility: < 1 mg/mL
[1]; organic solvent or mixture, thermodynamic from solid, Methanol: 5% vol. Water, 20° C., read-out: Solubility at RT
  solubility: 1 to 10 mg/mL (≈ 3.78 to 37.8 mM)
[1]; organic solvent or mixture, thermodynamic from solid, Methanol: 10% vol. Water, 20° C., read-out: Solubility at RT
  solubility: 1 to 10 mg/mL (≈ 3.78 to 37.8 mM)
[1]; organic solvent or mixture, thermodynamic from solid, Methanol, 20° C., read-out: Solubility at RT
  solubility: 1 to 6 mg/mL (≈ 3.78 to 22.7 mM)
[1]; organic solvent or mixture, thermodynamic from solid, Tetrahydrofuran, 20° C., read-out: Solubility at RT
  solubility: 1 to 6 mg/mL (≈ 3.78 to 22.7 mM)
[1]; organic solvent or mixture, thermodynamic from solid, Toluene, 20° C., read-out: Solubility at RT
  solubility: < 1 mg/mL
[1]; thermodynamic from solid, Water, 20° C., read-out: Solubility at RT
  solubility: 1 to 6 mg/mL (≈ 3.78 to 22.7 mM)
[1]; thermodynamic from solid, water and common organic solvents, 20° C., read-out: Solubility
  solubility: < 6 mg/mL
[1]; toluene, 40 °C, organic solvent or mixture, thermodynamic from solid, read-out: Solubility at 40° C.
  solubility: < 1 mg/mL
[1]; water- or DMSO-containing binary solvent systems, 20° C.
  solubility: moderate
[2]; 1,4-Dioxane:Water 90:10% vol., water activity 0.7, 5 °C, seeded with Form 3
  Produced Crystal Form: Form 3
[2]; 1,4-Dioxane:Water 90:10% vol., water activity 0.7, 20 °C, seeded with Form 3
  Produced Crystal Form: Form 1
[2]; 1,4-Dioxane:Water 96.5:3.5% vol., water activity 0.5, 7 °C, seeded with Form 3
  Produced Crystal Form: Form 1
[2]; 1,4-Dioxane:Water 96.5:3.5% vol., water activity 0.5, 20 °C, seeded with Form 3
  Produced Crystal Form: Form 1
[2]; 1,4-Dioxane:Water 99:1% vol., water activity 0.2, 20 °C, seeded with Form 3
  Produced Crystal Form: Form 1
[2]; 20° C.
  Water activity (αw) at which the form is the more stable: < 0.7
[2]; Water, water activity 1.0, 5 °C, Form 1 suspension seeded with Form 3
  Produced Crystal Form: Form 3
[2]; Water, water activity 1.0, 20 °C, Form 1 suspension seeded with Form 3
  Produced Crystal Form: Form 3
[2]; lower temperatures (5, and 7° C.)
  Water activity (αw) at which the form is the more stable: < 0.5
[3]; between 0-90% RH, 25° C.
  DVS weight gain: < 0.65 wt. %
[4]
  Physical stability by PXRD: physically stable; also recorded: Form 1 as the major component, with only a trace of Form 3 being formed

## [2H]C1([2H])C(=O)NC(=O)[C@@]([2H])(N2Cc3c(N)cccc3C2=O)C1([2H])[2H] [Amorphous D-(S)-lenalidomide]
[5]
  Degradation by HPLC: 2.5 % AUC

## [2H]C1([2H])C(=O)NC(=O)[C@@]([2H])(N2Cc3c(N)cccc3C2=O)C1([2H])[2H] [Form 2]
[4]
  Time physically stable: at least 24 hrs
[4]; closed vial at room temperature, within 3 weeks
  Form conversion on storage: converts to a mixture of Forms 1 and 3; also recorded: converted to Forms 1 and 3
[4]; water, 12 hr at 5° C.
  Form obtained upon stirring in water: Form 3 formed

## [2H]C1([2H])C(=O)NC(=O)[C@@]([2H])(N2Cc3c(N)cccc3C2=O)C1([2H])[2H] [Form 3]
[2]; 20° C.
  Water activity (αw) at which the form is the more stable: > 0.7
[3]; below 20% relative humidity
  DVS behaviour: dehydrate and re-hydrate with a relatively small hysteresis
[3]; between 20-90% relative humidity, room temperature
  DVS weight change: no weight change
[3]; equilibrated at 0% RH for four hours
  PXRD of residual solid after DVS: no change in solid form
[4]
  Physical stability by PXRD: about half of the solid converted to Form 1; also recorded: partial conversion to Form 1
[4]; stored in a closed vial
  Time physically stable: at least 3 weeks
